Data: PMC5339036 (Angewandte Chemie (International ed. in English), 2017)
Counter-ions that a name gives are not always drawn. One block for each molecule: values may come before it.

Key:
[1] = test system: human non-small cell lung A549
[2] = test system: axolotl (Ambystoma mexicanum) embryo tail regeneration
[3] = cancer cell line cytotoxicity assay; conditions: human, A549 cells (non-small cell lung cancer cell line)
Hsp90α = Hsp90α (Homo sapiens, UniProt P07900); test: standard Hsp90α inhibition; type: binding
[4] = second generation clinical analogue; cited from earlier work
[5] = second generation clinical analogue; cited from earlier work; remark: listed apart in the source

IC50 [1]: > 50000 nM
Molecule: 17-O-demethyl-reblastatin

Molecule: COC1=C2C[C@@H](C)C[C@H](OC)[C@H](O)[C@@H](C)/C=C(\C)[C@H](OC(N)=O)[C@@H](OC)/C=C\C=C(/C)C(=O)NC(=CC1=O)C2=O [Gdm, Geldanamycin]
dose-response: observation at the highest dose ([2]; 10 μM, axolotl embryos): developmental abnormalities and toxicity
axolotls dead at day 7 ([2]; axolotl (Ambystoma mexicanum), in vivo, 7 day): 3
IC50 [3]: 1 nM

IC50 (Hsp90α): 5 to 30 nM
Molecule: COc1c(O)cc2cc1C[C@@H](C)C[C@H](OC)[C@H](O)[C@@H](C)/C=C(\C)[C@H](OC(N)=O)[C@@H](OC)CC/C=C(\C)C(=O)N2 [reblastatin]
IC50 [3]: 700 nM

Molecule: C=CCNc1c(O)cc2c(O)c1C[C@@H](C)C[C@H](OC)[C@H](O)[C@@H](C)/C=C(\C)[C@H](OC(N)=O)[C@@H](OC)/C=C\C=C(/C)C(=O)N2 [retaspimycin hydrochloride/IPI-504, retaspimycin hydrochloride]
solubility relative to first generation analogues [4]: improved solubility
hepatotoxicity relative to first generation analogues [5]: reduced hepatotoxicity
